Measured values published in ChEMBL document CHEMBL3885881, “DrugMatrix”.

Organism: Rattus norvegicus
Experiment: DrugMatrix - Regimen: Daily Repeat
Format: toxicity, organism-based, Sprague-Dawley
Parameters: regimen Daily Repeat, gender Male, age 6-8 weeks
Settings: in vivo, po, route oral GAVAGE, vehicle 100 % WATER; for ABSOLUTE BASOPHIL / ABSOLUTE EOSINOPHIL / ABSOLUTE LYMPHOCYTE / ABSOLUTE MONOCYTE / ABSOLUTE SEGMENTED NEUTROPHIL / BASOPHIL / EOSINOPHIL / ERYTHROCYTE COUNT / HEMATOCRIT / HEMOGLOBIN / LEUKOCYTE COUNT / LYMPHOCYTE / MEAN CORPUSCULAR HEMOGLOBIN / MEAN CORPUSCULAR HEMOGLOBIN CONCENTRATION / MEAN CORPUSCULAR VOLUME / MONOCYTE / NEUTROPHIL / NUCLEATED RED BLOOD CELLS / PLATELET COUNT: tissue Blood; for ALANINE AMINOTRANSFERASE / ALBUMIN / ALKALINE PHOSPHATASE / ASPARTATE AMINOTRANSFERASE / BLOOD UREA NITROGEN / CARBON DIOXIDE / CHLORIDE / CHOLESTEROL / CREATINE PHOSPHOKINASE / CREATININE / GLUCOSE / LACTATE DEHYDROGENASE / LIPASE / PHOSPHORUS / POTASSIUM / SODIUM / TOTAL BILIRUBIN / TOTAL PROTEIN / URIC ACID: tissue Plasma
[1] = 0 mg/kg, 72 h, dose level Control, time 3 day
[2] = 0 mg/kg, 120 h, dose level Control, time 5 day
[3] = 500 mg/kg, 72 h, dose level Low, time 3 day

For NCCCCCC(=O)O [AMINOCAPROIC ACID], which “ABSOLUTE BASOPHIL” value [1] is on record?
The value was 0 CELLS/uL.

And the “ABSOLUTE EOSINOPHIL” value [1]?
Its value is 40 CELLS/uL.

And the “ABSOLUTE LYMPHOCYTE” value [1]?
Its value is 13599.5 CELLS/uL.

What about the “ABSOLUTE MONOCYTE” value [1] of the same compound?
Its value is 239.33 CELLS/uL.

What about the “ABSOLUTE SEGMENTED NEUTROPHIL” value [1] of the same compound?
Its value is 1021.17 CELLS/uL.

And the BASOPHIL [1]?
Its BASOPHIL is 0%.

And the EOSINOPHIL [1]?
Its EOSINOPHIL is 0.33%.

And the “ERYTHROCYTE COUNT” value [1]?
Its value is 5.71 x10E6/uL.

What about the HEMATOCRIT [1] of the same compound?
Its HEMATOCRIT is 36.35%.

And the HEMOGLOBIN [1]?
The HEMOGLOBIN was 14.05 G/DL.

What about the “LEUKOCYTE COUNT” value [1] of the same compound?
The value was 14.9 x10E3/uL.

And the LYMPHOCYTE [1]?
Its LYMPHOCYTE is 91%.

What about the “MEAN CORPUSCULAR HEMOGLOBIN” value [1] of the same compound?
The value was 24.62 pg.

What about the “MEAN CORPUSCULAR HEMOGLOBIN CONCENTRATION” value [1] of the same compound?
Its value is 38.65 G/DL.

What about the “MEAN CORPUSCULAR VOLUME” value [1] of the same compound?
Its value is 63.7 fL.

And the MONOCYTE [1]?
Its MONOCYTE is 1.5%.

And the NEUTROPHIL [1]?
The NEUTROPHIL was 7.17%.

What about the “NUCLEATED RED BLOOD CELLS” value [1] of the same compound?
The value was 0.33 /100WBC.

What about the “PLATELET COUNT” value [1] of the same compound?
The value was 1225.5 x10E3/uL.

What about the “ALANINE AMINOTRANSFERASE” value [1] of the same compound?
Its value is 48.5 u/L.

And the ALBUMIN [1]?
The ALBUMIN was 4.18 G/DL.

What about the “ALKALINE PHOSPHATASE” value [1] of the same compound?
The value was 390.83 u/L.

And the “ASPARTATE AMINOTRANSFERASE” value [1]?
The value was 89 u/L.

And the “BLOOD UREA NITROGEN” value [1]?
Its value is 14.83 mg/dL.

What about the “CARBON DIOXIDE” value [1] of the same compound?
Its value is 24.83 mmol/L.

And the CHLORIDE [1]?
The CHLORIDE was 100.83 MEQ/L.

And the CHOLESTEROL [1]?
Its CHOLESTEROL is 72.5 mg/dL.

What about the “CREATINE PHOSPHOKINASE” value [1] of the same compound?
The value was 503 u/L.

And the CREATININE [1]?
Its CREATININE is 0.2 mg/dL.

And the GLUCOSE [1]?
The GLUCOSE was 163 mg/dL.

And the “LACTATE DEHYDROGENASE” value [1]?
The value was 316.83 u/L.

What about the LIPASE [1] of the same compound?
Its LIPASE is 9.83 u/L.

And the PHOSPHORUS [1]?
The PHOSPHORUS was 11.57 mg/dL.

What about the POTASSIUM [1] of the same compound?
Its POTASSIUM is 6.16 MEQ/L.

And the SODIUM [1]?
The SODIUM was 142.62 MEQ/L.

What about the “TOTAL BILIRUBIN” value [1] of the same compound?
The value was 0.2 mg/dL.

What about the “TOTAL PROTEIN” value [1] of the same compound?
Its value is 5.8 G/DL.

And the “URIC ACID” value [1]?
The value was 1.65 mg/dL.

What about the “ABSOLUTE BASOPHIL” value [2] of the same compound?
The value was 0 CELLS/uL.

And the “ABSOLUTE EOSINOPHIL” value [2]?
The value was 21 CELLS/uL.

What about the “ABSOLUTE LYMPHOCYTE” value [2] of the same compound?
The value was 14288.5 CELLS/uL.

And the “ABSOLUTE MONOCYTE” value [2]?
The value was 205.33 CELLS/uL.

What about the “ABSOLUTE SEGMENTED NEUTROPHIL” value [2] of the same compound?
The value was 968.5 CELLS/uL.

And the BASOPHIL [2]?
Its BASOPHIL is 0%.

What about the EOSINOPHIL [2] of the same compound?
Its EOSINOPHIL is 0.17%.

What about the “ERYTHROCYTE COUNT” value [2] of the same compound?
The value was 5.83 x10E6/uL.

And the HEMATOCRIT [2]?
The HEMATOCRIT was 36.53%.

And the HEMOGLOBIN [2]?
The HEMOGLOBIN was 14.4 G/DL.

What about the “LEUKOCYTE COUNT” value [2] of the same compound?
Its value is 15.48 x10E3/uL.

What about the LYMPHOCYTE [2] of the same compound?
Its LYMPHOCYTE is 92%.

What about the “MEAN CORPUSCULAR HEMOGLOBIN” value [2] of the same compound?
Its value is 24.72 pg.

What about the “MEAN CORPUSCULAR HEMOGLOBIN CONCENTRATION” value [2] of the same compound?
The value was 39.43 G/DL.

And the “MEAN CORPUSCULAR VOLUME” value [2]?
The value was 62.68 fL.

And the MONOCYTE [2]?
The MONOCYTE was 1.33%.

And the NEUTROPHIL [2]?
The NEUTROPHIL was 6.5%.

What about the “NUCLEATED RED BLOOD CELLS” value [2] of the same compound?
The value was 0.17 /100WBC.

What about the “PLATELET COUNT” value [2] of the same compound?
The value was 1280.5 x10E3/uL.

What about the “ALANINE AMINOTRANSFERASE” value [2] of the same compound?
The value was 50 u/L.

What about the ALBUMIN [2] of the same compound?
Its ALBUMIN is 4.28 G/DL.

What about the “ALKALINE PHOSPHATASE” value [2] of the same compound?
The value was 380.17 u/L.

What about the “ASPARTATE AMINOTRANSFERASE” value [2] of the same compound?
The value was 82.67 u/L.

What about the “BLOOD UREA NITROGEN” value [2] of the same compound?
The value was 15.33 mg/dL.

What about the “CARBON DIOXIDE” value [2] of the same compound?
The value was 27.17 mmol/L.

And the CHLORIDE [2]?
Its CHLORIDE is 100.33 MEQ/L.

And the CHOLESTEROL [2]?
The CHOLESTEROL was 60.67 mg/dL.

What about the “CREATINE PHOSPHOKINASE” value [2] of the same compound?
The value was 441.5 u/L.

What about the CREATININE [2] of the same compound?
Its CREATININE is 0.16 mg/dL.

What about the GLUCOSE [2] of the same compound?
Its GLUCOSE is 146 mg/dL.

And the “LACTATE DEHYDROGENASE” value [2]?
The value was 189.33 u/L.

And the LIPASE [2]?
Its LIPASE is 9.17 u/L.

What about the PHOSPHORUS [2] of the same compound?
Its PHOSPHORUS is 11.67 mg/dL.

What about the POTASSIUM [2] of the same compound?
The POTASSIUM was 6.86 MEQ/L.

And the SODIUM [2]?
Its SODIUM is 142.33 MEQ/L.

And the “TOTAL BILIRUBIN” value [2]?
The value was 0.2 mg/dL.

What about the “TOTAL PROTEIN” value [2] of the same compound?
The value was 6.12 G/DL.

And the “URIC ACID” value [2]?
Its value is 1.82 mg/dL.

What about the “ABSOLUTE BASOPHIL” value [3] of the same compound?
Its value is 0 CELLS/uL.

What about the “ABSOLUTE EOSINOPHIL” value [3] of the same compound?
The value was 0 CELLS/uL.

What about the “ABSOLUTE LYMPHOCYTE” value [3] of the same compound?
Its value is 14688.33 CELLS/uL.

And the “ABSOLUTE MONOCYTE” value [3]?
Its value is 111.67 CELLS/uL.

And the “ABSOLUTE SEGMENTED NEUTROPHIL” value [3]?
The value was 1900 CELLS/uL.

What about the BASOPHIL [3] of the same compound?
Its BASOPHIL is 0%.

What about the EOSINOPHIL [3] of the same compound?
Its EOSINOPHIL is 0%.

What about the “ERYTHROCYTE COUNT” value [3] of the same compound?
The value was 6.18 x10E6/uL.

And the HEMATOCRIT [3]?
The HEMATOCRIT was 38.13%.

And the HEMOGLOBIN [3]?
Its HEMOGLOBIN is 14.43 G/DL.

And the “LEUKOCYTE COUNT” value [3]?
Its value is 16.7 x10E3/uL.

What about the LYMPHOCYTE [3] of the same compound?
Its LYMPHOCYTE is 87.67%.

And the “MEAN CORPUSCULAR HEMOGLOBIN” value [3]?
Its value is 23.37 pg.

What about the “MEAN CORPUSCULAR HEMOGLOBIN CONCENTRATION” value [3] of the same compound?
Its value is 37.87 G/DL.

And the “MEAN CORPUSCULAR VOLUME” value [3]?
Its value is 61.8 fL.

And the MONOCYTE [3]?
Its MONOCYTE is 0.67%.

And the NEUTROPHIL [3]?
The NEUTROPHIL was 11.67%.

What about the “NUCLEATED RED BLOOD CELLS” value [3] of the same compound?
Its value is 0.33 /100WBC.

And the “PLATELET COUNT” value [3]?
The value was 1460 x10E3/uL.

And the “ALANINE AMINOTRANSFERASE” value [3]?
Its value is 62 u/L.

What about the ALBUMIN [3] of the same compound?
The ALBUMIN was 4.23 G/DL.

And the “ALKALINE PHOSPHATASE” value [3]?
Its value is 425.33 u/L.

And the “ASPARTATE AMINOTRANSFERASE” value [3]?
Its value is 90.33 u/L.

What about the “BLOOD UREA NITROGEN” value [3] of the same compound?
The value was 16.67 mg/dL.

What about the “CARBON DIOXIDE” value [3] of the same compound?
The value was 27.67 mmol/L.

What about the CHLORIDE [3] of the same compound?
Its CHLORIDE is 100.33 MEQ/L.

And the CHOLESTEROL [3]?
The CHOLESTEROL was 70 mg/dL.

What about the “CREATINE PHOSPHOKINASE” value [3] of the same compound?
The value was 270.33 u/L.

What about the CREATININE [3] of the same compound?
Its CREATININE is 0.23 mg/dL.

And the GLUCOSE [3]?
The GLUCOSE was 150.67 mg/dL.

What about the “LACTATE DEHYDROGENASE” value [3] of the same compound?
Its value is 189.67 u/L.

What about the LIPASE [3] of the same compound?
The LIPASE was 9.33 u/L.

What about the PHOSPHORUS [3] of the same compound?
Its PHOSPHORUS is 11.87 mg/dL.

What about the POTASSIUM [3] of the same compound?
The POTASSIUM was 7.16 MEQ/L.

And the SODIUM [3]?
Its SODIUM is 144.07 MEQ/L.

What about the “TOTAL BILIRUBIN” value [3] of the same compound?
Its value is 0.27 mg/dL.

And the “TOTAL PROTEIN” value [3]?
Its value is 5.93 G/DL.

And the “URIC ACID” value [3]?
The value was 1.67 mg/dL.
